PMC9090415, “Discovery of small molecule inhibitors of Plasmodium falciparum apicoplast DNA polymerase” (Journal of Enzyme Inhibition and Medicinal Chemistry, 2022)

Target: P. falciparum apicoplast DNA polymerase (Pf-apPOL) (Plasmodium falciparum, UniProt Q8ILY1)
Experiment: Fluorescence-based high-throughput DNA polymerase assay (molecular beacon), primary screen and dose-response;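 for % inhibition ApPOL 90': test concentration in µM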;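 for % inhibition apPOL 180': test concentration in µM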
Assay type: biochemical
Details: for IC50: supplemental file 2, sheet IC50 nontoxic compounds, Pf-apPOL; for DNA Pol: 90 min, 10 µM
Outline: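 Single-point screening used 10 µM compound with 20 nM polymerase, 20 nM hairpin substrate and 6 µM dNTPs for 90 min at 25 °C. Confirmatory titrations (2.5–80 µM) followed fluorescence at three times, and IC50 was derived from a fit including a cooperativity term n.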

Chain of P. falciparum apicoplast DNA polymerase (Pf-apPOL) (Q8ILY1 entry or part of it): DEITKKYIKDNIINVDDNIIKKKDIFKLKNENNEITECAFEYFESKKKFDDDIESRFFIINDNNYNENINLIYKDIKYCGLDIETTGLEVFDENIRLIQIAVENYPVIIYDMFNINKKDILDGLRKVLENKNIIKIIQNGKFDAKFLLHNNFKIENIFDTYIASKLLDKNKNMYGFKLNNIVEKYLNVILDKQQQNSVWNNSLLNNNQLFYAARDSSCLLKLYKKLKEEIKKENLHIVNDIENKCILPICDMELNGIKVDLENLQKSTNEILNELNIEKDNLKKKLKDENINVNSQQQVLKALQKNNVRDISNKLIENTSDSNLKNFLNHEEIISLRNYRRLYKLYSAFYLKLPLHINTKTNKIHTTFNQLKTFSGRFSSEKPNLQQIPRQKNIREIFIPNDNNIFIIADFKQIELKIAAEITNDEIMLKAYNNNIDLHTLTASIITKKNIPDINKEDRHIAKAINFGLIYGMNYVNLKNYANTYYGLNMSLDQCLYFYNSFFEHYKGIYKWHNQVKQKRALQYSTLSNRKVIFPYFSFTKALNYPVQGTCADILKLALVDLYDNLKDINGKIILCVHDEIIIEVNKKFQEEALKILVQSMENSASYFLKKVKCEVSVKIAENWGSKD

Compound: O=C(c1c[nH]c2ncccc12)N1CCCC1 [Molecule 63]
- IC50: 21.4 µM

Compound: Cc1cc2[nH]c(C(=O)Nc3ccc(F)cc3)c(CN3CCOCC3)c2s1 [Molecule 60]
- IC50: 21.6 µM

Compound: COc1cc(Cl)c(C)cc1NC(=O)Cn1ccc2c(=O)[nH]ccc21 [Molecule 33, COc1cc(Cl)c(cc1NC(=O)Cn1ccc2c1cc[nH]c2=O)C]
- % inhibition Apo pol 10' (DRC-1, concentration 2.5): 1.493%
- % inhibition Apo pol 10' (DRC-1, concentration 5): 13.6047%
- % inhibition Apo pol 10' (DRC-1, concentration 10): 50.6447%
- % inhibition Apo pol 10' (DRC-1, concentration 20): 68.9678%
- % inhibition Apo pol 10' (DRC-1, concentration 40): 82.7027%
- % inhibition Apo pol 10' (DRC-1, concentration 80): 78.8716%
- % inhibition Apol 90' (DRC-1, concentration 2.5): -1.924%
- % inhibition Apol 90' (DRC-1, concentration 5): 4.488%
- % inhibition Apol 90' (DRC-1, concentration 10): 37.9384%
- % inhibition Apol 90' (DRC-1, concentration 20): 62.017%
- % inhibition Apol 90' (DRC-1, concentration 40): 81.936%
- % inhibition Apol 90' (DRC-1, concentration 80): 83.5925%
- % inhibition apPOL 180' (DRC-1, concentration 2.5): -6.054%
- % inhibition apPOL 180' (DRC-1, concentration 5): -2.934%
- % inhibition apPOL 180' (DRC-1, concentration 10): 23.1917%
- % inhibition apPOL 180' (DRC-1, concentration 20): 50.4837%
- % inhibition apPOL 180' (DRC-1, concentration 40): 76.46%
- % inhibition apPOL 180' (DRC-1, concentration 80): 83.9917%
- % inhibition Apo pol 5' (DRC-2, concentration 2.5): -0.547%
- % inhibition Apo pol 5' (DRC-2, concentration 5): 14%
- % inhibition Apo pol 5' (DRC-2, concentration 10): 36%
- % inhibition Apo pol 5' (DRC-2, concentration 20): 42%
- % inhibition Apo pol 5' (DRC-2, concentration 40): 40%
- % inhibition Apo pol 5' (DRC-2, concentration 80): 31%
- % inhibition Apol 40' (DRC-2, concentration 2.5): -1.56%
- % inhibition Apol 40' (DRC-2, concentration 5): 18%
- % inhibition Apol 40' (DRC-2, concentration 10): 46%
- % inhibition Apol 40' (DRC-2, concentration 20): 60%
- % inhibition Apol 40' (DRC-2, concentration 40): 62%
- % inhibition Apol 40' (DRC-2, concentration 80): 57%
- % inhibition ApPOL 90' (DRC-2, concentration 2.5): -2%
- % inhibition ApPOL 90' (DRC-2, concentration 5): 15%
- % inhibition ApPOL 90' (DRC-2, concentration 10): 45%
- % inhibition ApPOL 90' (DRC-2, concentration 20): 61%
- % inhibition ApPOL 90' (DRC-2, concentration 40): 65%
- % inhibition ApPOL 90' (DRC-2, concentration 80): 63%
- % inhibition apPOL 180' (DRC-2, concentration 2.5): -9%
- % inhibition apPOL 180' (DRC-2, concentration 5): 6.65%
- % inhibition apPOL 180' (DRC-2, concentration 10): 35%
- % inhibition apPOL 180' (DRC-2, concentration 20): 56%
- % inhibition apPOL 180' (DRC-2, concentration 40): 67%
- % inhibition apPOL 180' (DRC-2, concentration 80): 68%
- DNA Pol (primary screen value by plate and well): 43
- DNA Pol (primary screen value of the 186 hits, unit not given): 43

Compound: Cc1cc(C)nc(Nc2nc(CC(=O)Nc3nc(-c4ccco4)cs3)cs2)n1 [Molecule 92]
- IC50: 8.58 µM
